The supplement of paper PMC11061612

Assays:
Carboplatin = compound: C1CC(C1)(C(=O)[O-])C(=O)[O-].N.N.[Pt+2] [Carboplatin]; conditions: max 10 µM
Outline: (§1)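 Cancer cell lines were seeded into 1536-well plates in 7.5 μl medium (DMEM/F12 or RPMI, 10% FBS), held 24 hours at 37°C and 5% CO2, and dosed for 72 hours with final DMSO typically 0.2%. Luminescence from CellTiter-Glo 2.0, scaled between blank-well and DMSO-well means, served as viability. The single-agent IC50 was obtained from dose-response fits with a non-linear mixed effects model, each fit being a two-parameter logistic curve.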

AZD5363 = compound: C1CN(CCC1(C(=O)N[C@@H](CCO)C2=CC=C(C=C2)Cl)N)C3=NC=NC4=C3C=CN4 [AZD5363]; conditions: max 10 µM
Outline: as §1

AZD1775 = compound: C=CCn1c(=O)c2cnc(Nc3ccc(N4CCN(C)CC4)cc3)nc2n1-c1cccc(C(C)(C)O)n1 [AZD1775]; conditions: max 3 µM
Outline: as §1

Trametinib = compound: CC(=O)Nc1cccc(-n2c(=O)n(C3CC3)c(=O)c3c(Nc4ccc(I)cc4F)n(C)c(=O)c(C)c32)c1 [Trametinib]; conditions: max 1 µM
Outline: as §1

Paclitaxel = compound: CC(=O)O[C@H]1C(=O)[C@@]2(C)[C@H]([C@H](OC(=O)c3ccccc3)[C@]3(O)C[C@H](OC(=O)[C@H](O)[C@@H](NC(=O)c4ccccc4)c4ccccc4)C(C)=C1C3(C)C)[C@]1(OC(C)=O)CO[C@@H]1C[C@@H]2O [Paclitaxel]; conditions: max 3 µM
Outline: as §1

Palbociclib = compound: CC(=O)c1c(C)c2cnc(Nc3ccc(N4CCNCC4)cn3)nc2n(C2CCCC2)c1=O [Palbociclib]; conditions: max 10 µM
Outline: as §1

AZD1390 = compound: CC(C)n1c(=O)n(C)c2cnc3cc(F)c(-c4ccc(OCCCN5CCCCC5)nc4)cc3c21 [AZD1390]; conditions: max 0.3 µM
Outline: as §1

Venetoclax = compound: CC1(C)CCC(CN2CCN(c3ccc(C(=O)NS(=O)(=O)c4ccc(NCC5CCOCC5)c([N+](=O)[O-])c4)c(Oc4cnc5[nH]ccc5c4)c3)CC2)=C(c2ccc(Cl)cc2)C1 [Venetoclax]; conditions: max 1 µM
Outline: as §1

Dasatinib = compound: CC1=C(C(=CC=C1)Cl)NC(=O)C2=CN=C(S2)NC3=CC(=NC(=N3)C)N4CCN(CC4)CCO [Dasatinib]; conditions: max 2 µM
Outline: as §1

AZD2811 = compound: CCN(CCO)CCCOc1ccc2c(Nc3cc(CC(=O)Nc4cccc(F)c4)[nH]n3)ncnc2c1 [AZD2811]; conditions: max 1 µM
Outline: as §1

SN-38 = compound: CCc1c2c(nc3ccc(O)cc13)-c1cc3c(c(=O)n1C2)COC(=O)[C@]3(O)CC [SN-38]; conditions: max 0.3 µM
Outline: as §1

AZD0156 = compound: CN(C)CCCOc1ccc(-c2ccc3ncc4c(c3c2)n(C2CCOCC2)c(=O)n4C)cn1 [AZD0156]; conditions: max 3 µM
Outline: as §1

AZD4320 = compound: CN(CC[C@H](CSC1=CC=CC=C1)NC2=C(C=C(C=C2)S(=O)(=O)NC(=O)C3=CC=C(C=C3)N4CCC(CC4)[C@H](C5=CC=CC=C5C6=CC=C(C=C6)Cl)O)S(=O)(=O)C(F)(F)F)CCO [AZD4320]; conditions: max 1 µM
Outline: as §1

Etoposide = compound: COc1cc([C@@H]2c3cc4c(cc3[C@@H](O[C@@H]3O[C@@H]5CO[C@@H](C)O[C@H]5[C@H](O)[C@H]3O)[C@H]3COC(=O)[C@H]23)OCO4)cc(OC)c1O [Etoposide]; conditions: max 10 µM
Outline: as §1

Gefitinib = compound: COc1cc2ncnc(Nc3ccc(F)c(Cl)c3)c2cc1OCCCN1CCOCC1 [Gefitinib]; conditions: max 10 µM
Outline: as §1

AZD5153 = compound: COc1nnc2ccc(N3CCC(c4ccc(OCCN5CCN(C)C(=O)[C@H]5C)cc4)CC3)nn12 [AZD5153]; conditions: max 1 µM
Outline: as §1

Lapatinib = compound: CS(=O)(=O)CCNCc1ccc(-c2ccc3ncnc(Nc4ccc(OCc5cccc(F)c5)c(Cl)c4)c3c2)o1 [Lapatinib]; conditions: max 10 µM
Outline: as §1

AZD8186 = compound: C[C@@H](Nc1cc(F)cc(F)c1)c1cc(C(=O)N(C)C)cc2c(=O)cc(N3CCOCC3)oc12 [AZD8186]
Outline: as §1

Crizotinib = compound: C[C@@H](Oc1cc(-c2cnn(C3CCNCC3)c2)cnc1N)c1c(Cl)ccc(F)c1Cl [Crizotinib]; conditions: max 10 µM
Outline: as §1

Savolitinib = compound: C[C@@H](c1ccc2nccn2c1)n1nnc2ncc(-c3cnn(C)c3)nc21 [Savolitinib]; conditions: max 1 µM
Outline: as §1

AZD6738 = compound: C[C@@H]1COCCN1C2=NC(=NC(=C2)C3(CC3)[S@](=N)(=O)C)C4=C5C=CNC5=NC=C4 [AZD6738]; conditions: max 10 µM
Outline: as §1

AZD5991 = compound: Cc1c2c(nn1C)CSCc1cc(n(C)n1)CSc1cc(c3ccccc3c1)OCCCc1c(C(=O)O)n(C)c3c-2c(Cl)ccc13 [AZD5991]; conditions: max 1 µM
Outline: as §1

AZD7648 = compound: Cc1cc2ncnn2cc1Nc1ncc2c(n1)n(C1CCOCC1)c(=O)n2C [AZD7648]; conditions: max 10 µM
Outline: as §1

Taselisib = compound: Cc1nc(-c2cn3c(n2)-c2ccc(-c4cnn(C(C)(C)C(N)=O)c4)cc2OCC3)n(C(C)C)n1 [Taselisib]; conditions: max 10 µM
Outline: as §1

Selumetinib = compound: Cn1cnc2c(F)c(Nc3ccc(Br)cc3Cl)c(C(=O)NOCCO)cc21 [Selumetinib]; conditions: max 10 µM
Outline: as §1

SRA737 = compound: N#Cc1cnc(Nc2cc(NC[C@H]3CNCCO3)c(C(F)(F)F)cn2)cn1 [SRA737]; conditions: max 10 µM
Outline: as §1

MK-2206 = compound: NC1(c2ccc(-c3nc4ccn5c(=O)[nH]nc5c4cc3-c3ccccc3)cc2)CCC1 [MK-2206]; conditions: max 10 µM
Outline: as §1

Gemcitabine = compound: Nc1ccn([C@@H]2O[C@H](CO)[C@@H](O)C2(F)F)c(=O)n1 [Gemcitabine]; conditions: max 0.3 µM
Outline: as §1

[1] = compound: O=C(Nc1ccc2[nH]nc(-c3ccncc3)c2c1)[C@@H]1CCN(CC(=O)N2CCN(c3ccc(-c4ncccn4)cc3)CC2)C1; conditions: max 5 µM
Outline: as §1

Olaparib = compound: O=C(c1cc(Cc2n[nH]c(=O)c3ccccc23)ccc1F)N1CCN(C(=O)C2CC2)CC1 [Olaparib]; conditions: max 10 µM
Outline: as §1

5-Fluorouracil = compound: O=c1[nH]cc(F)c(=O)[nH]1 [5-Fluorouracil]; conditions: max 20 µM
Outline: as §1

Capivasertib = compound: C1CN(CCC1(C(=O)N[C@@H](CCO)C2=CC=C(C=C2)Cl)N)C3=NC=NC4=C3C=CN4 [Capivasertib]; conditions: max 10 µM
Outline: as §1

SG3199 = compound: CC1=CN2[C@@H](C1)C=NC3=CC(=C(C=C3C2=O)OC)OCCCCCOC4=C(C=C5C(=C4)N=C[C@@H]6CC(=CN6C5=O)C)OC [SG3199]; conditions: max 0.001 µM
Outline: as §1

Alisertib = compound: COc1cc(Nc2ncc3c(n2)-c2ccc(Cl)cc2C(c2c(F)cccc2OC)=NC3)ccc1C(=O)O [Alisertib]; conditions: max 10 µM
Outline: as §1

Prexasertib = compound: COc1cccc(OCCCN)c1-c1cc(Nc2cnc(C#N)cn2)n[nH]1 [Prexasertib]; conditions: max 1 µM
Outline: as §1

Doxorubicin = compound: COc1cccc2c1C(=O)c1c(O)c3c(c(O)c1C2=O)C[C@@](O)(C(=O)CO)C[C@@H]3O[C@H]1C[C@H](N)[C@H](O)[C@H](C)O1 [Doxorubicin]; conditions: max 1 µM
Outline: as §1

Row | Cell Line | IC50, cell viability 72 h (Carboplatin) [µM] | IC50, cell viability 72 h (AZD5363) [µM] | IC50, cell viability 72 h (AZD1775) [µM] | IC50, cell viability 72 h (Trametinib) [µM] | IC50, cell viability 72 h (Paclitaxel) [µM] | IC50, cell viability 72 h (Palbociclib) [µM] | IC50, cell viability 72 h (AZD1390) [µM] | IC50, cell viability 72 h (Venetoclax) [µM] | IC50, cell viability 72 h (Dasatinib) [µM] | IC50, cell viability 72 h (AZD2811) [µM] | IC50, cell viability 72 h (SN-38) [µM] | IC50, cell viability 72 h (AZD0156) [µM] | IC50, cell viability 72 h (AZD4320) [µM] | IC50, cell viability 72 h (Etoposide) [µM] | IC50, cell viability 72 h (Gefitinib) [µM] | IC50, cell viability 72 h (AZD5153) [µM] | IC50, cell viability 72 h (Lapatinib) [µM] | IC50, cell viability 72 h (AZD8186; max 10 µM) [µM] | IC50, cell viability 72 h (Crizotinib) [µM] | IC50, cell viability 72 h (Savolitinib) [µM] | IC50, cell viability 72 h (AZD6738) [µM] | IC50, cell viability 72 h (AZD5991) [µM] | IC50, cell viability 72 h (AZD7648) [µM] | IC50, cell viability 72 h (Taselisib) [µM] | IC50, cell viability 72 h (Selumetinib) [µM] | IC50, cell viability 72 h (SRA737) [µM] | IC50, cell viability 72 h (MK-2206) [µM] | IC50, cell viability 72 h (Gemcitabine) [µM] | IC50, cell viability 72 h [1] [µM] | IC50, cell viability 72 h (Olaparib) [µM] | IC50, cell viability 72 h (5-Fluorouracil) [µM] | IC50, cell viability 72 h (Capivasertib) [µM] | IC50, cell viability 72 h (SG3199) [µM] | IC50, cell viability 72 h (Alisertib) [µM] | IC50, cell viability 72 h (Prexasertib) [µM] | IC50, cell viability 72 h (Doxorubicin) [µM] | IC50, cell viability 72 h (AZD8186; max 3 µM) [µM]
1 | HCC-44 (Lung Adenocarcinoma) | > 10 | 9.96 | 0.934 | 0.236 | 0.0136 | > 10 | > 0.3 | > 1 | 0.705 | > 1 | 0.177 | > 3 | > 1 | > 10 | > 10 | 0.29 | > 10 | > 10 | 8.92 | > 1 | > 10 | > 1 | > 10 | 2.24 | > 10 | > 10 | > 10 | 0.225 | 2.8 | > 10 | > 20 |  |  |  |  |  | 
2 | HuO-3N1 (Osteosarcoma) |  |  | > 3 | > 1 |  | > 10 | > 0.3 | > 1 | 0.305 | > 1 | 0.275 | > 3 | > 1 |  | > 10 | > 1 | > 10 |  | > 10 | > 1 | > 10 | 0.613 | > 10 | 6.88 | > 10 |  | > 10 |  |  | > 10 |  | > 10 | > 0.001 | > 10 | 0.529 | 0.616 | > 3
3 | RL95-2 (Endometrial Carcinoma) |  |  | 0.49 | 0.54 |  | > 10 | > 0.3 | > 1 | > 2 | 0.305 | > 0.3 | > 3 | > 1 |  | > 10 | > 1 | > 10 |  | > 10 | > 1 | 8.39 | 0.266 | > 10 | > 10 | 9.13 |  |  |  |  | > 10 |  | 1.4 | > 0.001 | 2.14 | 0.0938 | > 1 | > 3
4 | RPMI-8866 (Chronic Myelogenous Leukemia) |  |  | 0.349 | > 1 |  | 2.71 | > 0.3 | > 1 | 1.13 | 0.449 | 0.00448 | > 3 | 0.362 |  | > 10 | 0.0476 | > 10 |  | 5.73 | > 1 | 0.926 | > 1 | > 10 | 2.45 | > 10 |  |  |  |  | > 10 |  | > 10 | > 0.001 | 0.153 | 0.01 | 0.125 | > 3
5 | RT4 (Bladder Carcinoma) |  |  | 2.26 | 0.328 |  | > 10 | > 0.3 | > 1 | > 2 | > 1 | 0.0434 | > 3 | > 1 |  | > 10 | 0.84 | > 10 |  | > 10 | > 1 | > 10 | > 1 | > 10 | > 10 | > 10 |  |  |  |  | > 10 |  | > 10 | > 0.001 | 2.4 | > 1 | 0.642 | > 3
6 | SJRH30 (Rhabdomyosarcoma) |  |  | 0.317 | > 1 |  | > 10 | > 0.3 | > 1 | > 2 | > 1 | > 0.3 | > 3 | > 1 |  | > 10 | > 1 | > 10 |  | 5.22 | > 1 | 3.8 | 0.98 | > 10 | 1.47 | > 10 |  | > 10 |  |  | > 10 |  | 4.7 | > 0.001 | 9.41 | 0.0159 | 0.967 | > 3
7 | SNU-175 (Colorectal Carcinoma) |  |  | 0.365 | 0.547 |  | 8.34 | > 0.3 | > 1 | > 2 | 0.0656 | 0.208 | > 3 | > 1 |  | 9.29 | 0.236 | > 10 |  | 4.58 | > 1 | > 10 | > 1 | > 10 | > 10 | > 10 |  |  |  |  | > 10 |  | > 10 | > 0.001 | 0.377 | 0.761 | 0.502 | > 3
